Read-outs that look alike come from different tables or passages of the source.
Assays:
[1] = 1H NMR titration, binding of iodide; conditions: DMSO-d6:CDCl3 (15:85, v/v), 25° C.
Experimental: ^1H NMR Titration methods. Titrations of 4c and 6c with anions as their tetra-n-butyl ammonium (TBA) salts were carried out by ^1H NMR (400 MHz on Bruker-400) at room temperature (298 K). 0.5 mL of receptor 4c (5.0 mM) or 6c (2.0 mM) were prepared in the rubber-cap NMR tubes. Aliquots of concentrated TBACl or TBAI solution (50 mM for the titration of 4c and 20 mM for the titration of 6c) containing the same amount of receptors were added into the receptor solution using 20 microliter pipette. An initial ^1H NMR spectrum was collected and additional spectra were obtained after each injection of TBACl or TBAI solution. All titration ^1H NMR spectra were stacked together and the chemical shifts of amide protons were then fitted to the proposed 1:1 binding model using BindFit v0.5 (http://app.supramolecular.org/bindfit/).
Anion binding with four amides, i.e., L1mer-L4mer, was studied in the mixed solvents of CD3CN/CDCl3 (1/9, v/v) by titrating an amide host with 0 to 5 equivalents of tetrabutylammonium (n-Bu4N^+) salt of the corresponding anion. The binding of chloride, bromide, iodide, and nitrate was examined with the four amides in CDCl3 containing 10% CD3CN. The titration data were collected by monitoring the changes in chemical shifts of the backbone amide protons and the inner aromatic protons with varying ratios of the anion guests. […]

[2] = 1H NMR titration, binding of BF4^−; conditions: DMSO-d6:CDCl3 (15:85, v/v), 25° C., NMR titration (protons a and b)
Experimental: (§1) ^1H NMR titration methods. Titrations of c5a and c5b with anions as their tetra-n-butylammonium (TBA), tetra-ethylammonium (TEA) and tetra-methylammonium (TMA) salts were carried out by ^1H NMR (400 MHz) at 25° C. 0.4 mL of corresponding hosts solutions were prepared in the rubber-cap NMR tubes. Aliquots of concentrated guest solution containing hosts were added into the NMR tubes using 20 microliter pipette. An initial ^1H NMR spectrum was collected and additional spectra were obtained after each injection of guest solution. All titration ^1H NMR spectra were stacked together and the chemical shifts of the internal aromatic CH proton were then fitted to 1:1 binding model using BindFit v0.5 (http://app.supramolecular.org/bindfit/) to evaluate binding constants to anions.

[3] = 1H NMR titration, binding of ClO4^−; conditions: DMSO-d6:CDCl3 (15:85, v/v), 25° C.
Experimental: as §1

[4] = 1H NMR titration, binding of IO4^−; conditions: DMSO-d6:CDCl3 (15:85, v/v), 25° C., NMR titration (protons a and b)
Experimental: as §1

[5] = Isothermal titration calorimetry (ITC), Cl^−; type: binding; conditions: 25° C.
Experimental: (§2) Isothermal titration calorimetry (ITC) experiments were performed using a MicroCal VP-ITC. ITC experiments were conducted by adding ~1.5 mL of a solution containing c5a to the sample cell. Followed by titrating 10 μL aliquots of a solution containing the corresponding TBA·X salt (~10-14× concentration of c5a solution) from the syringe into the sample cell. Heats of dilution were obtained by titrating 10 μL aliquots of the TBA·X solution from the syringe into the sample cell in the absence of c5a. The heats of dilution were subtracted from the raw data. ITC data processing and curve fitting was done using the Origin program (MicroCal).
(§3) Two-step competition ITC experiments for determining the Ka of c5a and iodide. In CH3CN:CHCl3 (5:95, v/v), the binding affinity of c5a for I^− was too high to be determined with direct NMR or ITC titration. Instead, two-step competition ITC experiments with Cl^− as the competitor were performed.

[6] = Isothermal titration calorimetry (ITC), ClO4^−; type: binding; conditions: 25° C.
Experimental: as §2, §3

[7] = EC50 of halide transport, HPTS assay; type: biochemical; conditions: POPC LUVs, entrapped HPTS
Experimental: The time course of the emission intensity of intravesicular HPTS, It, was obtained first by ratiometric analysis (Rt=It,450/It,405), followed by normalization according to equation (S1),
where R0=Rt at t=100 s, before the addition of c5a; R∞=Rt at t=350 s upon the addition of Triton X-100. Normalized intensity ratio at 300 s just before addition of Triton X-100 was defined as the transmembrane activity (Y) which was analyzed with the Hill equation (S2) to give effective concentration EC50 and the Hill coefficient n, (S2)
where Y0 is Y in absence of carrier, […], and c is the carrier concentration in a cuvette.

[8] = Ion transport with different MCl salts, HPTS assay; type: biochemical; conditions: POPC LUVs, 100 mM MCl, pH 7.0, 25° C.
Experimental: Inside vesicles: 10 mM HEPES, 100 mM MCI (M=Li, Na, K, Rb), 1 mM HPTS, pH 7.0. Outside vesicles: 10 mM HEPES, 100 mM MCI, pH 7.0. A base pulse (20 μL of 0.5 M NaOH) was applied to each vesicular solution at 50 s, followed by adding 20 μL of c5a in DMF at 100 s. For each group, the vesicles were lysed after 200 s by adding 0.1% Triton X-100 to obtain the maximum emission intensity for normalization. The emission intensities of the intravesicular HPTS at 510 nm, I405 and I450, corresponding to two excitation wavelengths (405 and 450 nm) were monitored simultaneously, based on which the normalized intensity ratios (I405/I450) of the two emision intensities were obtained.

[9] = single NMR titration (protons a and b)
[10] = triplicate NMR titrations (footnote c)

CCCCCCCCOCC(C)(C)C(=O)Nc1ccc2cc1C(=O)Nc1ccc(NC(=O)C(C)(C)COCCCCCCCC)c(c1)C(=O)Nc1ccc(NC(=O)C(C)(C)COCCCCCCCC)c(c1)C(=O)Nc1ccc(NC(=O)C(C)(C)COCCCCCCCC)c(c1)C(=O)Nc1ccc(NC(=O)C(C)(C)COCCCCCCCC)c(c1)C(=O)N2 [c5a]
Association constant Ka, 1:1 complex with I^− [1, 9]: (2.73 ± 0.17) × 10^4 M^−1 | Association constant Ka, 1:1 complex with I^− [1, 10]: (3.77 ± 0.25) × 10^4 ^c M^−1 | Association constant Ka, 1:1 complex with BF4^− [2]: (4.73 ± 0.38) × 10^4 M^−1 | Association constant Ka, 1:1 complex with ClO4^− [3, 9]: (5.74 ± 0.51) × 10^4 M^−1 | Association constant Ka, 1:1 complex with ClO4^− [3, 10]: (9.60 ± 0.76) × 10^4 ^c M^−1 | Association constant Ka, 1:1 complex with IO4^− [4]: (1.18 ± 0.08) × 10^4 M^−1 | Association constant Ka, 1:1 complex with Cl^− ([5]; CH3CN:CHCl3 (5:95, v/v)): (2.34 ± 0.24) × 10^6 M^−1 | Association constant Ka, 1:1 complex with Cl^− ([5]; DMSO:CHCl3 (5:95, v/v)): (1.60 ± 0.10) × 10^4 M^−1 | Association constant Ka, 1:1 complex with ClO4^− ([6]; DMSO-d6:CDCl3 (15:85, v/v) column, ITC measurements (footnote d)): (1.90 ± 0.02) × 10^4 ^d M^−1 | Association constant Ka, 1:1 complex with ClO4^− ([6]; DMSO:CHCl3 (5:95, v/v), ITC): (4.50 ± 0.50) × 10^5 M^−1 | EC50 ([7]; c5a 0.05 to 10 μM, base pulse, read-out: EC50 for the transport of Br^−): 4.11 µM | EC50 ([7]; c5a 0.05 to 10 μM, base pulse, read-out: EC50 for the transport of Cl^−): 0.31 µM | EC50 ([7]; c5a up to 10 μM, too large to be measured, read-out: EC50 for the transport of I^−): > 10 µM | transmembrane ion transport in the presence of LiCl, NaCl, KCl, or RbCl [8]: insignificant difference
